The values that follow come from patent US4260745A, “3-Halo cephalosporins” (Eli Lilly and Company, priority 1979, dated 1981).

The data set in a line: Electrometric titration. The data set is classed as physicochemical.
[1] abbreviates: 66% aqueous dmf, only or first pKa, read-out: pKa.

SMILES strings stand for the structures. Counter-ions that a name gives are not always drawn. Like-named read-outs stand apart in the source and are kept apart here.

As to `COC(=O)C1=C(O)CS[C@@H]2C(NC(=O)COc3ccccc3)C(=O)N12` (some centres unmarked) [Example 9, Methyl 7-phenoxyacetamido-3-hydroxy-3-cephem-4-carboxylate], under setting [1], the pKa is 5.6.

Take `O=C(Cc1cccs1)NC1C(=O)N2C(C(=O)OCc3ccc([N+](=O)[O-])cc3)=C(O)CS[C@H]12` (some centres unmarked) [Example 12, p-Nitrobenzyl 7-[2-(2-thienyl)acetamido]-3-hydroxy-3-cephem-4-carboxylate]: the pKa under setting [1] was 5.9. Regarding `CC(=O)NC1C(=O)N2C(C(=O)OCc3ccc([N+](=O)[O-])cc3)=C(O)CS[C@H]12` (some centres unmarked) [Example 13, p-Nitrobenzyl 7-acetamido-3-hydroxy-3-cephem-4-carboxylate], under setting [1], the pKa stood at 5.9. On to `NC1C(=O)N2C(C(=O)OC(c3ccccc3)c3ccccc3)=C(O)CS[C@H]12` (some centres unmarked) [diphenylmethyl 7-amino-3-hydroxy-3-cephem-4-carboxylate hydrochloride], for which the pKa reads like this: (60% aqueous dmf, 60% aq. DMF, first group, read-out: titratable groups) 4.5; (60% aqueous dmf, 60% aq. DMF, second group, read-out: titratable groups) 6.5.
